# Source: patent US20230201275A1 (priority 2020, published 2023)
# Entries after “also recorded” stand apart in the source; their conditions may differ. Read-outs that look alike come from different tables or passages of the source.
# Assays:
# [1] = molecular target: HilD mutant K293A (Salmonella typhimurium, UniProt P0CL08, K293A); assay type: cell-based; details: 20 μM
# [2] = molecular target: wild type HilD (Salmonella typhimurium, UniProt P0CL08); assay type: cell-based; details: 20 μM, wild type HilD strain
# [3] = molecular target: HilD mutant K294A (Salmonella typhimurium, UniProt P0CL08, K294A); assay type: cell-based; details: 20 μM
# [4] = system: hilA; assay type: cell-based, Salmonella Typhimurium
# [5] = system: Salmonella SPI1 expression (sicA-GFP); assay type: in vivo, mice
# [6] = molecular target: HilC (Salmonella typhimurium, UniProt P0CL09); assay type: binding
# [7] = system: hilA; assay type: cell-based, Salmonella; details: absence of lon, 20 μM
# [8] = system: RtsA; assay type: binding, Salmonella
# [9] = molecular target: T1, HilD (Salmonella typhimurium, UniProt P0CL08); assay type: binding
# [10] = molecular target: T1, HilD; assay type: cell-based; details: lon mutant
# Chain of HilD mutant K294A (P0CL08 whole entry K294A, looked up): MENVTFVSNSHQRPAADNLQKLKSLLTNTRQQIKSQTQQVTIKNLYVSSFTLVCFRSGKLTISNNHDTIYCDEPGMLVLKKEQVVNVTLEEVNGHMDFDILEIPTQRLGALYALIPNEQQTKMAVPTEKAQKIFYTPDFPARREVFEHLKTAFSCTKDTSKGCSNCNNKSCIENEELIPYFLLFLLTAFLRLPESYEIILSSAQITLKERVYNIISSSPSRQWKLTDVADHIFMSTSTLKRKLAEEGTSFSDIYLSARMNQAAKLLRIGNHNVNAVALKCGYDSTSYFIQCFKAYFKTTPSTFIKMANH
# T1 sequence (P0CL08 whole entry): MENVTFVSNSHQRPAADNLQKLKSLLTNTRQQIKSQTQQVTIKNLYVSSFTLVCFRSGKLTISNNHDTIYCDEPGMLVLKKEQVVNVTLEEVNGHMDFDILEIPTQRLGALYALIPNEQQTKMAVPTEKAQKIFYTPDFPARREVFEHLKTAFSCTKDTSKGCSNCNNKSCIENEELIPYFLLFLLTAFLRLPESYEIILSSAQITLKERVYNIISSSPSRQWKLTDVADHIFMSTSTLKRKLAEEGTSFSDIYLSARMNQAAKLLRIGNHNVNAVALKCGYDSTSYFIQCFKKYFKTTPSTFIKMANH
# Chain of wild type HilD (P0CL08 whole entry): as above
# Chain of HilC (P0CL09 whole entry): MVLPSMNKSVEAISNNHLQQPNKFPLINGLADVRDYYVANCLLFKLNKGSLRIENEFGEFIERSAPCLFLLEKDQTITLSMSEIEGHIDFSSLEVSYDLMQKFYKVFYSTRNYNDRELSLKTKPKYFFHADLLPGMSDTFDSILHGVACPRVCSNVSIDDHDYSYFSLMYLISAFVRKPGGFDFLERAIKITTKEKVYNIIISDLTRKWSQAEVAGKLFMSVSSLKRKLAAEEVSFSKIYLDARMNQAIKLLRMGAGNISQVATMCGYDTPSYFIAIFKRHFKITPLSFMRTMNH
# Chain of HilD mutant K293A (P0CL08 whole entry K293A, looked up): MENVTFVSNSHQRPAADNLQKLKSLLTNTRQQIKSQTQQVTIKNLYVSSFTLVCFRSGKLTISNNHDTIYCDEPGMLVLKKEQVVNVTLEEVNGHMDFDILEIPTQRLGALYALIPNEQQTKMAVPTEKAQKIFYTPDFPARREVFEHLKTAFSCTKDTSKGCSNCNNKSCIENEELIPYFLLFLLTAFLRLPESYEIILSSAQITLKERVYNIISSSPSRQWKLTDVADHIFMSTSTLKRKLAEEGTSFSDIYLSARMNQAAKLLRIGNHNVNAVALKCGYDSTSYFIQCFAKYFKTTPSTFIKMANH
SMILES,reduction of sipB expression [1],reduction of sipB expression [2] [fold],reduction of sipB expression [3],hilA (invasion gene) expression [4],"percentage of Salmonella expressing SPI in the gut ([5]; mice n=5/group, P<0.01 vs control)","reduction of percentage of bacteria expressing an invasion gene in the caecum ([5]; mice, 1.5 mM in drinking water, hilD UTR A25G strain) [fold]",binding of HilC to hilA promoter ([6]; 100 μM),"binding of HilC to hilA promoter ([6]; 100 μM, listed as cis-2-hexadecenoic acid)","binding of HilC to hilA promoter ([6]; 10, 25, 50 and 75 μM)","binding of HilC to hilA promoter ([6]; 10, 25, 50 and 75 μM, listed as cis-2-hexadecenoic acid)",hilA expression [7],binding of RtsA to hilA promoter [8],"binding of HilD to hilA promoter ([9]; 20 μM, 10 nM DNA, 150 μM protein)","binding of HilD to hilA promoter ([9]; 20 μM, 10 nM DNA, 150 μM protein, listed as cis-2-hexadecenoic acid)","binding of HilD to hilA promoter ([9]; 1, 2, 5 and 10 μM)","binding of HilD to hilA promoter ([9]; 1, 2, 5 and 10 μM, listed as cis-2-hexadecenoic acid)",effect on HilD stability [10]
"CCCCCCCCCCCCC/C=C/C(=O)O [2-trans-hexadecenoic acid, reference compound]",4.7 fold,5.2,4.5 fold,–,–,–,–,–,–,–,–,–,–,–,–,–,–
"CCCCCCCCC/C=C\C(=O)O [2-cis-dodecenoic acid, (Z)-dodec-2-enoic acid]",no significant reduction,4.1,no significant reduction,reduced expression to a lesser degree,–,–,–,–,–,–,–,–,–,–,–,–,–
"CCCCCCCCCCCCC/C=C\C(=O)O [2-cis-hexadecenoic acid, (Z)-hexadec-2-enoic acid]",No significant repression,~11,No significant repression,reduced expression to a lesser degree,reduces the percentage,2,preventing binding,prevented binding,partially inhibited binding,did so partially,continued to repress,preventing binding; also recorded: partially inhibited binding; also recorded: prevented binding; also recorded: did so partially,prevented the binding,completely inhibited from binding,partially inhibited binding,did so partially,no effect
